Results: patent US20220089663A1, “PROTEINS AND FLUOROPHORE-CONTAINING COMPOUNDS SELECTIVE FOR NaV1.7” (MEMORIAL SLOAN KETTERING CANCER CENTER, priority 2019, published 2022)

What was measured:
[1] = target: T1, hNav1.5 (Homo sapiens, UniProt Q14524); assay: automated whole-cell patch clamp (QPatch 16X), HEK293-hNav1.5; type: cell-based
T1 construct: host or cells: HEK293

[2] = target: T2, hNav1.1 (Homo sapiens, UniProt P35498); assay: automated whole-cell patch clamp (QPatch 16X), HEK293-hNav1.1; type: cell-based
T2 construct: host or cells: HEK293

[3] = target: T3, hNav1.7 (Homo sapiens, UniProt Q15858); assay: conventional whole cell patch clamp, kinetic studies on hNav1.7; type: cell-based
T3 construct: host or cells: HEK293
Experimental: Conventional patch clamp. Coverslips containing cells of HEK293 stable expressing hNav1.7 α and human β1 subunits were placed in a recording chamber on the stage of an inverted microscope with the extracellular solution containing 140 mM NaCl, 2 mM CaCl2, 4 mM KCl, 1 mM MgCl2, and 10 mM HEPES (pH 7.4 with NaOH). […] All recordings were made at room temperature (22-24° C.) using MultiClamp 700B amplifier, Axo™ Digidata® 1550B and PCLAMP software (Molecular Devices). Nav channel currents were measured using the whole cell configuration of the patch clamp technique. All peptides were dissolved in the extracellular solution with 0.1% BSA. The effects of peptides were tested by using the same voltage protocol as showing in the Qpatch technique. Concentration response data were analysed using nonlinear least-squares fit of the log (inhibitor) vs. response (three parameters) (GraphPad Prism 7) to provide pIC50 determinations. The conductance-voltage (G-V) relationships obtained by using a protocol in which cells depolarised from a holding potential of −120 mV, stepping from −80 to +60 mV in 5 mV increments. Steady-state inactivation was obtained by applying a depolarisation to 0 mV following a series step potential from −120 mV to 20 mV in 5 mV increments. The V0.5 activation and inactivation were calculated by fitting data with Boltzmann equation in GraphPad Prism 7. Recovery from fast inactivation was obtained by applying a first 0 mV pulse followed by repolarisation to −120 mV and a second pulse to 0 mV after a period ranging from 0 to 50 ms, increasing in 1 ms increments. The time constant was calculated by fitting data with one-phase decay in GraphPad Prism 7.

[4] = target: T4, hNav1.2 (Homo sapiens, UniProt Q99250); assay: automated whole-cell patch clamp (QPatch 16X), HEK293-hNav1.2; type: cell-based
T4 construct: host or cells: HEK293

[5] = target: T5, hNav1.3 (Homo sapiens, UniProt Q9NY46); assay: automated whole-cell patch clamp (QPatch 16X), HEK293-hNav1.3; type: cell-based
T5 construct: host or cells: HEK293

[6] = target: T3, hNav1.7; assay: automated whole-cell patch clamp (QPatch 16X), HEK293-hNav1.7; type: cell-based
[7] = target: T6, hNav1.6 (Homo sapiens, UniProt Q9UQD0); assay: automated whole-cell patch clamp (QPatch 16X), HEK293-hNav1.6; type: cell-based
T6 construct: host or cells: HEK293

[8] = 10 μM, 37° C.
[9] = acute in vivo toxicity after intravenous injection; set-up: species or system mouse
Experimental: Acute in vivo toxicity. All animal experiments were performed in accordance with protocols approved by the Institutional Animal Care and Use Committee of MSK and followed the National Institute of Health guidelines for animal welfare. Six athymic nude mice 6-8 weeks old were purchased from Envigo RMS, Inc. An intravenous (IV) catheter was placed in tail vein of each mouse and they were anesthetized using Isoflurane (Novaplus, Telangana-India). Anesthesia was maintained using 1.0 to 1.5 L/min of Isoflurane and 2 L/min of oxygen. Three animals were injected with 68 μM, 7 nmol Hsp1a-FL in 100 μL of PBS, and the other three with […], of PBS. Animals were monitored using a rodent surgical monitor (Indus instruments, Houston, Tex.) before, during, and up to 16 minutes after injection. Numeric data points represent averaged values of 5±1 seconds duration. Data was collected before injection, 15 seconds after injection, 5 minutes after injection and 15 minutes after injection. Mouse body core temperature was measured by placing a rectal probe and electronically regulated via a surgical platform. The high-resolution electrocardiogram (EKG) was measured by placing non-invasive electrodes on the 4 paws and electrical contact was assured using a conducting gel (Electrode cream, Indus instruments, Houston, Tex.). Heart rate was automatically calculated from the R-R peaks derived from the EKG signal. Peripheral capillary oxygen saturation (SpO2) was non-invasively measured by placing a clip sensor on the animal's left thigh.
Statistical Analysis. Data were statistically analyzed by generalized estimating equations followed by LSD post hoc test when appropriate using SPSS 23.0. During animal toxicity studies, data points representing loss of signal were excluded from the analysis. Loss of signal was defined by a brief contact loss between the monitoring equipment and the mice (creating a “false” zero or −1 result). Loss of signal was corrected by placing the electrode in close contact to the mice. Average and standard deviations were calculated for each mouse.
Unless otherwise stated, data points represent mean values and error bars represent the standard deviation of biological replicates (mean±SEM). All p-values were calculated using a Student's unpaired t-test. Statistical significance was considered for p-values<0.05 and as follows: ns=not significant, *p<0.05, **p<0.01, ***p<0.001. Mann-Whitney tests were used for analysis of the unpaired samples (e.g. vital signs in mice injected with Hsp1a and mice from the control group) and the Wilcoxon test was used for analysis of paired samples (e.g. vital signs from same mouse before and after injection). Statistical significance was determined with alpha=0.05. Analysis and figures were prepared in GraphPad Prism 8.

[10] = 60 nM, compared to vehicle, P<0.01
[11] = before, 15 seconds, 5 and 15 minutes after injection

T3 sequence (Q15858 whole entry): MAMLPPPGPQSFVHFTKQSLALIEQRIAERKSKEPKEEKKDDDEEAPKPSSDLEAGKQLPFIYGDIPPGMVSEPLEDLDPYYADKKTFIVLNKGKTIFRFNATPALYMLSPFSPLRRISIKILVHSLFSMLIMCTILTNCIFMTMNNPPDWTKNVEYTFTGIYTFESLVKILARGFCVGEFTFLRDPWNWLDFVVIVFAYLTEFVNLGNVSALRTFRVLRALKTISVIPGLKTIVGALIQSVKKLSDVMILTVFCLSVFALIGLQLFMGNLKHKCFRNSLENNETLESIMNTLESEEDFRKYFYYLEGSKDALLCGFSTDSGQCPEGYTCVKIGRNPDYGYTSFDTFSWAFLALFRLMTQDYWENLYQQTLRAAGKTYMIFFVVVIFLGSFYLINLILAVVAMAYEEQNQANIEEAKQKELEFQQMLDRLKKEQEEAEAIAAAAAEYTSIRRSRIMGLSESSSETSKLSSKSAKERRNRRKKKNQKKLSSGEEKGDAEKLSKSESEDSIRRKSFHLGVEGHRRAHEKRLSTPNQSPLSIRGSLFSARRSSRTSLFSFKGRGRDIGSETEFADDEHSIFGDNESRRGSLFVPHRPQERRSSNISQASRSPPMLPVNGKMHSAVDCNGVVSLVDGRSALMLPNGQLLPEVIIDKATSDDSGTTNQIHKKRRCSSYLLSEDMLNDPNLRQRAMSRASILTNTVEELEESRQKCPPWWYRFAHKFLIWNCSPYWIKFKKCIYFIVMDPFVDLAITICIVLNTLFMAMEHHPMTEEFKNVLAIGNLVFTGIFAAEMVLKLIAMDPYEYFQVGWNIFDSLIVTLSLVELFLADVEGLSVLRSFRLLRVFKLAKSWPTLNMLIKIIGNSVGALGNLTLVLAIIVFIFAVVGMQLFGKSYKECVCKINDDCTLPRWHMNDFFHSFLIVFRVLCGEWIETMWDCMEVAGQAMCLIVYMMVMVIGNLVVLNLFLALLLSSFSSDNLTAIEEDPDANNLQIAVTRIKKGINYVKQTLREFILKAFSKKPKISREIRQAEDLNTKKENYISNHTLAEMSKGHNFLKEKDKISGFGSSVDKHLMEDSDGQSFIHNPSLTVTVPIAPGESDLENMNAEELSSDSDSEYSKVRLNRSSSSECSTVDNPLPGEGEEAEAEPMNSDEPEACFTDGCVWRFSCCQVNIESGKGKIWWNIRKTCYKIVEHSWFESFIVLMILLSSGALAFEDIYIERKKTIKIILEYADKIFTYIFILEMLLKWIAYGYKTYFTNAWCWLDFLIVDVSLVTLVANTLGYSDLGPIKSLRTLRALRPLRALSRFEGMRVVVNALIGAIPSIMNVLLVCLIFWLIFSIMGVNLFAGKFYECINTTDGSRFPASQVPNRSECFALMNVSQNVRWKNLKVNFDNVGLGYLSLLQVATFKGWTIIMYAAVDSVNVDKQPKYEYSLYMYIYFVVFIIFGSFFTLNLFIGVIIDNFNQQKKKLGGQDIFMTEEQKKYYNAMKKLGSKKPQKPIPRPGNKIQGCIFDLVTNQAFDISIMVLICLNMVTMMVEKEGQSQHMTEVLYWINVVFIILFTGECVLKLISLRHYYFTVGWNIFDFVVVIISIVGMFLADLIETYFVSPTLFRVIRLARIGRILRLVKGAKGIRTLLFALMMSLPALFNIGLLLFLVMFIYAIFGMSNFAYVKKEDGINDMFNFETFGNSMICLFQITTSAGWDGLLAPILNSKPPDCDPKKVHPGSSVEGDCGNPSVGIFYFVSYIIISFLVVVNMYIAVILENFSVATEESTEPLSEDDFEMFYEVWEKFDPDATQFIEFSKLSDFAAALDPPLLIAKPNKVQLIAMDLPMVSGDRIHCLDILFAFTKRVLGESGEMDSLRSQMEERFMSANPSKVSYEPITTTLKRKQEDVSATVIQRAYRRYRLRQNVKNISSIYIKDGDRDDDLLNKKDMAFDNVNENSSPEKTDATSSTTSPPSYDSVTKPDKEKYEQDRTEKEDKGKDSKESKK
T3 sequence (Q07699 19-218, further chain): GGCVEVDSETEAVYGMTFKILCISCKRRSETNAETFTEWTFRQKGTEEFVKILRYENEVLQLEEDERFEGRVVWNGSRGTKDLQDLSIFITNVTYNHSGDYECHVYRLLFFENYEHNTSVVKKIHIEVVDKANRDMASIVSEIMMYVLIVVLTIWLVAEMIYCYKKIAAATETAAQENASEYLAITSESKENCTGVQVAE
T1 sequence (Q14524 whole entry): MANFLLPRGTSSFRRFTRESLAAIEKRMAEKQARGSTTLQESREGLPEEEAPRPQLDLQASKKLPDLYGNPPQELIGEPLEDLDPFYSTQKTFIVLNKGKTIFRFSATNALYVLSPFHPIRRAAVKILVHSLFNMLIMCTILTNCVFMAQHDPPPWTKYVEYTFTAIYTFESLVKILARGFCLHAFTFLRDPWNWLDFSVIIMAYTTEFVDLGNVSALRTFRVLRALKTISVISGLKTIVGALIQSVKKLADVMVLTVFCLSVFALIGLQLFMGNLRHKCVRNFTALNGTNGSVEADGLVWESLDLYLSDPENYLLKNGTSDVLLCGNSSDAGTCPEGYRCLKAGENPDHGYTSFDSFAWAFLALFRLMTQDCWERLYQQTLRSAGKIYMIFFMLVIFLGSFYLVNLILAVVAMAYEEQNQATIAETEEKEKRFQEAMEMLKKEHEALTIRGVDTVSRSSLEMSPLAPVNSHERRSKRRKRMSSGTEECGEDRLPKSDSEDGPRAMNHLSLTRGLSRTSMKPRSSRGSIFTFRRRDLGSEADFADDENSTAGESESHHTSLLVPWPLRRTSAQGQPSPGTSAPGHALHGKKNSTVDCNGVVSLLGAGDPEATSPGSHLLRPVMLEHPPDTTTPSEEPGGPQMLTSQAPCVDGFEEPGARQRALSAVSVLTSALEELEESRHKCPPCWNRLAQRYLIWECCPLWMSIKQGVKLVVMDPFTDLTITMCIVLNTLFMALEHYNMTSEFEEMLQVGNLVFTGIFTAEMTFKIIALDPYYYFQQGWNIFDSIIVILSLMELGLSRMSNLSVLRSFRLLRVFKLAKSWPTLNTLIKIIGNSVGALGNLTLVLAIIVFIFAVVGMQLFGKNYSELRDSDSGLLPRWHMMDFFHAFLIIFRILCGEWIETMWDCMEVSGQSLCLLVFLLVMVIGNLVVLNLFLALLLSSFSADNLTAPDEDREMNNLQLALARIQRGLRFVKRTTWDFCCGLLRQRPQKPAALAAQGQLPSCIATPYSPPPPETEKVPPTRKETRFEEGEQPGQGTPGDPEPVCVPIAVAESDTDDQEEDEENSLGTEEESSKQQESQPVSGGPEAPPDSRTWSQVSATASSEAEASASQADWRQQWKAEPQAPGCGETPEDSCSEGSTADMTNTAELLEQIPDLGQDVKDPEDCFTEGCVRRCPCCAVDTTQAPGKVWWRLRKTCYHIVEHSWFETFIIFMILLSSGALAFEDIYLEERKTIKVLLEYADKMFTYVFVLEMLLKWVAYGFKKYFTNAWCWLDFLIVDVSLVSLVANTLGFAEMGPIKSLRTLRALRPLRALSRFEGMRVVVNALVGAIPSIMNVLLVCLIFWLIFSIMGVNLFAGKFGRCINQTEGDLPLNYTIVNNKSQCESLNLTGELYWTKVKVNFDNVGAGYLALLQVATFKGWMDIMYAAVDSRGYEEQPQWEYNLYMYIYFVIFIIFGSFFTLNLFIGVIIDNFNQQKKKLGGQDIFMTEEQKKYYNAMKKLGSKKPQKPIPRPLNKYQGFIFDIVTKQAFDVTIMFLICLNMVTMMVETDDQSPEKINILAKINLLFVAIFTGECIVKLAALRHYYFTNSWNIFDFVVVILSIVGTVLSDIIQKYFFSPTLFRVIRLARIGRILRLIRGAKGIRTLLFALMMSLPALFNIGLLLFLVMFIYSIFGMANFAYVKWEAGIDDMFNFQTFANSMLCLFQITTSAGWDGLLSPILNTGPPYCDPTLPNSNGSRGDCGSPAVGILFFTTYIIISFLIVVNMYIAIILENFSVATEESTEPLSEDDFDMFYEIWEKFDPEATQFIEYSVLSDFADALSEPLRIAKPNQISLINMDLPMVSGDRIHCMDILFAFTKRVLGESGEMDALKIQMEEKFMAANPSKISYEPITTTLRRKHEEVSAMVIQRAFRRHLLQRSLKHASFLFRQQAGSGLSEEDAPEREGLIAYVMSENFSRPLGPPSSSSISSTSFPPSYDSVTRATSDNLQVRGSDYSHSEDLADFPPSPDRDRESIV

CC[C@H](C)[C@H](NC(=O)[C@H](CCCCN)NC(=O)[C@@H]1CSSC[C@@H]2NC(=O)[C@@H]3CCCN3C(=O)[C@H](CCCNC(=N)N)NC(=O)[C@H](CCC(=O)O)NC(=O)[C@H](CO)NC(=O)[C@H](CC(=O)O)NC(=O)[C@@H]3CSSC[C@H](NC(=O)[C@H](C(C)C)NC(=O)[C@H](CC(C)C)NC(=O)CNC(=O)[C@H](CCC(=O)O)NC(=O)[C@H](CSSC[C@H](NC(=O)[C@@H](N)Cc4ccc(O)cc4)C(=O)N[C@@H](CCC(N)=O)C(=O)N[C@@H](CCCCN)C(=O)N[C@@H](Cc4ccccc4)C(=O)N[C@@H](CC(C)C)C(=O)N[C@@H](Cc4c[nH]c5ccccc45)C(=O)N[C@@H]([C@@H](C)O)C(=O)N3)NC2=O)C(=O)N[C@@H](CCCNC(=N)N)C(=O)N[C@@H](CC(C)C)C(=O)N[C@@H](Cc2c[nH]c3ccccc23)C(=O)N1)C(=O)N[C@@H](CC(N)=O)C(N)=O [sHsp1a]
inhibition of hNav1.5 currents ([1]; at 200 nM): did not show any significant inhibition
sensitivity of hNav1.5 ([1]; at 2 μM): insensitive
inhibition at 2 µM ([1]; at 2 μM, read-out: max. current inhibition hNav1.5): < 50%
IC50 ([1]; read-out: pIC50 on hNav1.5 (converted)): > 1 µM
hNav1.1 currents blocked ([2]; at 200 nM): 30%
inhibition at 2 µM ([2]; at 2 μM, read-out: current inhibition hNav1.1): 75%
IC50 ([2]; mean±S.E.M, read-out: pIC50 on hNav1.1 (converted)): 0.407 µM
V0.5 inactivation Δ [3, 10]: −11.62 mV
Δτ, recovery from fast inactivation [3, 10]: 1 ms
time for currents to recover following washout in peptide-free solution ([3]; after application of 200 nM for 4 min): ~10 min
time constant τ of recovery from fast inactivation ([3]; in presence of 60 nM, n=5, mean±SEM): 5.03 ± 0.43 ms
hNav1.2 currents blocked ([4]; at 200 nM): 30%
inhibition at 2 µM ([4]; at 2 μM, read-out: max. current inhibition hNav1.2): 60%
IC50 ([4]; mean±S.E.M, read-out: pIC50 on hNav1.2 (converted)): 0.302 µM
inhibition of hNav1.3 currents ([5]; at 200 nM): did not show any significant inhibition
inhibition at 2 µM ([5]; at 2 μM, read-out: max. current inhibition hNav1.3): < 50%
IC50 ([5]; read-out: pIC50 on hNav1.3 (converted)): > 1 µM
hNav1.7 currents blocked ([6]; at 200 nM): 70%
inhibition at 2 µM ([6]; at 2 μM, read-out: current inhibition hNav1.7): 75%
IC50 ([6]; mean±S.E.M, read-out: pIC50 on hNav1.7 (converted)): 0.0105 µM
inhibition of hNav1.6 currents ([7]; at 200 nM): did not show any significant inhibition
inhibition at 2 µM ([7]; at 2 μM, read-out: max. current inhibition hNav1.6): < 50%
IC50 ([7]; read-out: pIC50 on hNav1.6 (converted)): > 1 µM
amount in human serum after 24 hours [8]: remained constant
effect on heart muscle (heart rate) [9, 11]: no effect
effect on the respiratory musculature (oxygen saturation in peripheral blood) [9, 11]: no effect
effect on mouse body temperature ([9]; mouse, in vivo): no effect
